Results: patent publication US20250339409A1, “USES OF PAN BET INHIBITORS” (VYNE THERAPEUTICS INC., priority 2021, published 2025)
Where “and” joins values, the source holds several entries; their conditions need not be identical. Equal entries are not always repeated.

System: bleomycin induced pulmonary fibrosis
Experiment: Bleomycin induced pulmonary fibrosis in mice, nebulized treatment: body weight, weight of whole lung, survival
Format: in vivo
Conditions: for Predicted (LS) mean diff., % Change Body Weight, Group 2 Bleo/Veh vs. BETi1 group: Two Way ANOVA; for Predicted (LS) mean diff., % Change Body Weight, Group 2 Bleo/Veh vs. BETi1 group / Mean Diff., Weight of Whole lung, Group 2 Bleo/Veh vs. BETi1 group / Mean Diff., % Change Body Weight, Group 2 Bleo/Veh vs. BETi1 group: Dunnett's; for Mean Diff., Weight of Whole lung, Group 2 Bleo/Veh vs. BETi1 group / Mean Diff., % Change Body Weight, Group 2 Bleo/Veh vs. BETi1 group: One Way ANOVA; for % change in Body Weight Week 1 Compared to Baseline, mean / % change in Body Weight week 2 Compared to Baseline, mean / % change in Body Weight week 3 Compared to Baseline, Mean: group mean; for % change in Body Weight Week 1 Compared to Baseline / % change in Body Weight week 2 Compared to Baseline / % change in Body Weight week 3 Compared to Baseline: individual animals
Method: Bleomycin, a […], which acts inter alia by induction of DNA strand breaks.
The Bleomycin induced pulmonary fibrosis in a murine model is used to assess anti-fibrotic and/or anti-inflammatory properties of BETi1 formulations at three concentrations. Fifty C57BL/6 male mice aged 6 to 7 weeks and weighing between 25-30 grams are randomized into five treatment groups (10 mice each): (a) bleomycin induced mice treated with BETi1 at three concentrations (0.06 mg/mL, 0.6 mg/mL and 3 mg/mL); (b) bleomycin induced mice treated with vehicle (control for active) and (c) uninduced mice treated with vehicle (sham) (control for disease).
To generate the morphological and functional aspects of PF, 50 uL bleomycin sulfate in saline per mouse is intranasally dosed on Day 0 (other than for group 1 sham receiving saline). The bleomycin IU conversion to enzyme units (U) is approximately 2 U/mg. For delivery of 4 U/kg in 50 μL, a solution of 2 U/ml (for 25 g mouse) is prepared in 0.9% NaCl.
5 ml of BETi1 solutions at 3 doses, or vehicle and bleomycin concomitantly are delivered once daily for 21 days with a nebulizer based aerosol delivery system (eFlow® rapid Nebuliser System) by inhalation for a period which allows the solutions to be nebulized and up to 2 hours per day. A sham group receives vehicle only. Body weights are recorded on days 1, 7, 14, and 21. Mortality and clinical observations are recorded daily.
On day 21, mice are euthanized by cervical dislocation and the whole lung is dissected and weighed. The chest is wet with alcohol and large scissors are used to open the ribcage. The lungs are removed with fine scissors and forceps, rinsed with PBS and patted dry on gauze.
Investigation of the anti-fibrotic properties of BETi1 composition against TGF-β mediated fibrosis was undertaken in a bleomycin induced murine model mimicking IPF in accordance with the protocol set out in Experimental Method R.

[1] = Week 1, Group 3 Bleo/BETi1 0.06 mg/mL
[2] = Week 1, Group 4 Bleo/BETi1 0.6 mg/mL
[3] = Week 1, Group 5 Bleo/BETi1 3 mg/mL
[4] = Week 2, Group 3 Bleo/BETi1 0.06 mg/mL
[5] = Week 2, Group 4 Bleo/BETi1 0.6 mg/mL
[6] = Week 2, Group 5 Bleo/BETi1 3 mg/mL
[7] = Week 3, Group 3 Bleo/BETi1 0.06 mg/mL
[8] = Week 3, Group 4 Bleo/BETi1 0.6 mg/mL
[9] = Week 3, Group 5 Bleo/BETi1 3 mg/mL

## Cn1cc(-c2cccc(O)c2Oc2ccccc2)c2cc[nH]c2c1=O [BETi1]
0.06 mg/mL and 0.6 mg/mL, vs bleomycin and vehicle
  whole lung weight: slight decrease in lung weight
0.06 mg/mL inhaled, until day 20
  Probability of Survival: 50%
0.6 mg/mL inhaled, until day 20
  Probability of Survival: 81.3%
3 mg/mL inhaled, until day 20
  Probability of Survival: 76.5%
Baseline, Group 3 Bleo/BETi1 0.06 mg/mL
  Predicted (LS) mean diff., % Change Body Weight, Group 2 Bleo/Veh vs. BETi1 group: 0.0875%
Baseline, Group 4 Bleo/BETi1 0.6 mg/mL
  Predicted (LS) mean diff., % Change Body Weight, Group 2 Bleo/Veh vs. BETi1 group: 0.1750%
Baseline, Group 5 Bleo/BETi1 3 mg/mL
  Predicted (LS) mean diff., % Change Body Weight, Group 2 Bleo/Veh vs. BETi1 group: 0.1629%
Group 3 Bleo/BETi1 0.06 mg/mL
  Mean 2 (group mean), Weight of Whole lung: 0.2695
  Weight of Whole lung, Mean: 0.27 grams
  Weight of Whole lung, individual animals: 0.32 grams and 0.28 grams and 0.25 grams and 0.27 grams (3×) and 0.30 grams and 0.19 grams
  Mean Diff., Weight of Whole lung, Group 2 Bleo/Veh vs. BETi1 group: 0.01712
  % change in Body Weight Week 1 Compared to Baseline, mean: −22.10%
  % change in Body Weight week 2 Compared to Baseline, mean: −19.98%
  % change in Body Weight week 3 Compared to Baseline, Mean: −8.83%
  % change in Body Weight Week 1 Compared to Baseline: −37.04% and −20.00% and −39.32% and −11.86% and −37.37% and −3.83% and −26.78% and −31.75% and −37.30% and −38.92% and −35.61% and −25.13% and −14.61% and −18.53% and −13.95% and −12.29%
  % change in Body Weight week 2 Compared to Baseline: −39.35% and −15.35% and −47.44% and −1.27% and −1.28% and −37.16% and −39.04% and −8.22% and −19.83% and −3.26% and −7.63%
  % change in Body Weight week 3 Compared to Baseline: −37.04% and −9.77% and −0.85% and −2.13% and −5.02% and −14.22% and 0.93% and −2.54%
Group 3 Bleo/BETi1 0.06 mg/mL, Day Elapsed 0
  Probability of Survival: 100%
Group 3 Bleo/BETi1 0.06 mg/mL, Day Elapsed 8
  Probability of Survival: 93.75%
Group 3 Bleo/BETi1 0.06 mg/mL, Day Elapsed 9
  Probability of Survival: 81.25%
Group 3 Bleo/BETi1 0.06 mg/mL, Day Elapsed 10
  Probability of Survival: 75%
Group 3 Bleo/BETi1 0.06 mg/mL, Day Elapsed 12
  Probability of Survival: 68.75%
Group 3 Bleo/BETi1 0.06 mg/mL, Day Elapsed 14
  Probability of Survival: 62.5%
Group 3 Bleo/BETi1 0.06 mg/mL, Day Elapsed 18
  Probability of Survival: 56.25%
Group 3 Bleo/BETi1 0.06 mg/mL, Day Elapsed 19
  Probability of Survival: 50%
Group 3 Bleo/BETi1 0.06 mg/mL, Day Elapsed 20
  Probability of Survival: 50%
Group 4 Bleo/BETi1 0.6 mg/mL
  Mean 2 (group mean), Weight of Whole lung: 0.2681
  Weight of Whole lung, Mean: 0.27 grams
  Weight of Whole lung, individual animals: 0.13 grams and 0.31 grams and 0.29 grams and 0.32 grams and 0.37 grams and 0.27 grams and 0.20 grams (2×) and 0.33 grams and 0.34 grams (2×) and 0.18 grams and 0.21 grams
  Mean Diff., Weight of Whole lung, Group 2 Bleo/Veh vs. BETi1 group: 0.01849
  % change in Body Weight Week 1 Compared to Baseline, mean: −21.76%
  % change in Body Weight week 2 Compared to Baseline, mean: −17.12%
  % change in Body Weight week 3 Compared to Baseline, Mean: −13.58%
  % change in Body Weight Week 1 Compared to Baseline: −10.00% and −30.77% and −22.17% and −31.64% and −20.93% and −27.01% and −24.89% and −31.19% and −5.26% and −14.75% and −23.22% and −25.78% and −4.72% and −10.36% and −31.41% and −8.41%
  % change in Body Weight week 2 Compared to Baseline: −8.00% and −33.52% and −16.04% and −27.44% and −32.70% and −21.78% and 0.96% and −18.89% and −16.11% and −23.11% and −0.47% and −0.90% and −39.27% and −2.34%
  % change in Body Weight week 3 Compared to Baseline: −7.50% and −34.62% and −7.55% and −27.91% and −34.12% and −12.89% and 2.39% and −6.45% and −14.69% and −19.56% and −3.30% and −9.91% and −0.47%
Group 4 Bleo/BETi1 0.6 mg/mL, Day Elapsed 0
  Probability of Survival: 100%
Group 4 Bleo/BETi1 0.6 mg/mL, Day Elapsed 10
  Probability of Survival: 87.5%
Group 4 Bleo/BETi1 0.6 mg/mL, Day Elapsed 19
  Probability of Survival: 81.3%
Group 4 Bleo/BETi1 0.6 mg/mL, Day Elapsed 20
  Probability of Survival: 81.3%
Group 5 Bleo/BETi1 3 mg/mL
  Mean 2 (group mean), Weight of Whole lung: 0.2847
  Weight of Whole lung, Mean: 0.28 grams
  Weight of Whole lung, individual animals: 0.31 grams (2×) and 0.33 grams (2×) and 0.30 grams (2×) and 0.23 grams and 0.27 grams and 0.29 grams and 0.34 grams and 0.28 grams and 0.21 grams and 0.22 grams
  Mean Diff., Weight of Whole lung, Group 2 Bleo/Veh vs. BETi1 group: 0.001901
  % change in Body Weight Week 1 Compared to Baseline, mean: −19.36%
  % change in Body Weight week 2 Compared to Baseline, mean: −20.64%
  % change in Body Weight week 3 Compared to Baseline, Mean: −16.74%
  % change in Body Weight Week 1 Compared to Baseline: −26.87% and −23.22% and −36.71% and −15.25% and −13.81% and −12.78% and −17.30% and −34.80% and −28.32% and −27.55% and −24.87% and −34.38% and −26.99% and −11.63% and −10.16% and −15.64% and −21.86%
  % change in Body Weight week 2 Compared to Baseline: −11.45% and −36.97% and −40.10% and −20.18% and 1.43% and −7.05% and −22.16% and −38.24% and −34.07% and −20.81% and −42.92% and −8.37% and −1.07% and −7.11% and −20.47%
  % change in Body Weight week 3 Compared to Baseline: −5.73% and −37.44% and −21.52% and 1.90% and −7.05% and −24.32% and −46.08% and −37.17% and −17.26% and −3.26% and 2.67% and −4.27% and −18.14%
Group 5 Bleo/BETi1 3 mg/mL, Day Elapsed 0
  Probability of Survival: 100%
Group 5 Bleo/BETi1 3 mg/mL, Day Elapsed 12
  Probability of Survival: 88.24%
Group 5 Bleo/BETi1 3 mg/mL, Day Elapsed 19
  Probability of Survival: 76.5%
Group 5 Bleo/BETi1 3 mg/mL, Day Elapsed 20
  Probability of Survival: 76.5%
[1]
  Mean 2 (group mean), % Change Body Weight: −25.27%
  Mean Diff., % Change Body Weight, Group 2 Bleo/Veh vs. BETi1 group: 3.162%
  Predicted (LS) mean diff., % Change Body Weight, Group 2 Bleo/Veh vs. BETi1 group: −0.2812%
[2]
  Mean 2 (group mean), % Change Body Weight: −20.16%
  Mean Diff., % Change Body Weight, Group 2 Bleo/Veh vs. BETi1 group: −1.950%
  Predicted (LS) mean diff., % Change Body Weight, Group 2 Bleo/Veh vs. BETi1 group: 0.1375%
[3]
  Mean 2 (group mean), % Change Body Weight: −22.48%
  Mean Diff., % Change Body Weight, Group 2 Bleo/Veh vs. BETi1 group: 0.3723%
  Predicted (LS) mean diff., % Change Body Weight, Group 2 Bleo/Veh vs. BETi1 group: −0.2048%
[4]
  Mean 2 (group mean), % Change Body Weight: −19.98%
  Mean Diff., % Change Body Weight, Group 2 Bleo/Veh vs. BETi1 group: 1.135%
  Predicted (LS) mean diff., % Change Body Weight, Group 2 Bleo/Veh vs. BETi1 group: 0.3375%
[5]
  Mean 2 (group mean), % Change Body Weight: −17.12%
  Mean Diff., % Change Body Weight, Group 2 Bleo/Veh vs. BETi1 group: −1.732%
  Predicted (LS) mean diff., % Change Body Weight, Group 2 Bleo/Veh vs. BETi1 group: −0.3438%
[6]
  Mean 2 (group mean), % Change Body Weight: −20.64%
  Mean Diff., % Change Body Weight, Group 2 Bleo/Veh vs. BETi1 group: 1.788%
  Predicted (LS) mean diff., % Change Body Weight, Group 2 Bleo/Veh vs. BETi1 group: −0.05257%
[7]
  Mean 2 (group mean), % Change Body Weight: −8.830%
  Mean Diff., % Change Body Weight, Group 2 Bleo/Veh vs. BETi1 group: −4.313%
  Predicted (LS) mean diff., % Change Body Weight, Group 2 Bleo/Veh vs. BETi1 group: −2.409%
[8]
  Mean 2 (group mean), % Change Body Weight: −13.58%
  Mean Diff., % Change Body Weight, Group 2 Bleo/Veh vs. BETi1 group: 0.4395%
  Predicted (LS) mean diff., % Change Body Weight, Group 2 Bleo/Veh vs. BETi1 group: −0.1629%
[9]
  Mean 2 (group mean), % Change Body Weight: −16.74%
  Mean Diff., % Change Body Weight, Group 2 Bleo/Veh vs. BETi1 group: 3.600%
  Predicted (LS) mean diff., % Change Body Weight, Group 2 Bleo/Veh vs. BETi1 group: 0.6601%
